Non-standard residues stand in square brackets, D forms with d. No end group written: not given here.
What was measured:
[1] = tested on: mink lung epithelium MV-1-Lu cells; test: DNA synthesis (3H-thymidine incorporation) in MV-1-Lu cells, additions alone; type: cell-based; details: for 3H-Thymidine Incorporation 10^3 d.p.m. ± S.D.: 24 h; for (+/−) % change over control when CITA is present / (+/−) % change over control with TGF β-1: vs control (no additions); for decrease of DNA synthesis against the control: CITA alone, all concentrations examined (1, 10, 100 nM)
From the text: (§1) Inhibition of TGF β-1 Activity by CITAs: We have used a standardized in vitro assay for TGF β-1 as a test for the biological activity of CITAs. Our test is based on inhibiting the effect of TGF β-1 on a test cell proliferation system. In this assay, mink lung epithelium MV-1-Lu cells are exposed to TGF β-1. […] The decrease in DNA synthesis can be monitored by measuring the incorporation of labeled precursors in DNA. The incorporation of ^3H-thymidine in DNA in MV-1-Lu cells are used as a measure of cell proliferation. […] These concentrations of TGF β-1 were based on the amounts of TGF β-1 found in normal serum and in serum from patients with peritonitis, an inflammatory disease. The normal amount of TGF β-1 in human serum is approximately 2 nM (39 pG/ml). In patients with peritonitis, the amount increases to nearly 10 nM (169-216 pG/ml). The incorporation of ^3H-thymidine in the absence of TGF β-1 served as the control. To test the anti-TGF β-1 activity of CITAs, the cells were exposed to 1 nM, 10 nM, and 100 nM CITA-I, CITA-II, and CITA-III in the absence and in the presence of 5.0 nM and 10.0 nM TGF β-1.
(§2) Details of Experimental Procedures: 10^4 MV-1-Lu were plated in each well of a 12 well plate in 2.0 ml minimum essential medium containing non-essential amino acids (MEM) and 10% fetal bovine serum. After 24 hours, the medium was placed with serum free MEM and the cells were further cultured for two hours before the medium was placed with serum free MEM containing the test additives. After exposure to the test medium for 24 hours, the cells were pulse labeled for two hours with 0.5 μCi (methyl-^3H)-thymidine, (specific activity 60 Ci/mmol). After pulse labeling, the radioactive medium was removed, and the cells were washed 1× with 10% trichloracetic acid (TCA), 2× with 5% TCA, then 2× with phosphate buffered saline containing 50 μg/ml non-radioactive thymidine. The wash solutions were monitored to establish that no further unbound radioactive thymidine remained. The washed cell layers were dissolved in 1 ml 0.1 N NaOH containing 1% sodium dodecyl sulfate. The radioactivity in the solution was measured in a scintillation counter and expressed as disintegrations per minute (d.p.m.). Each test was carried out in quadruplicate, and the data presented as mean±standard deviation.

[2] = tested on: TGF β-1; test: Inhibition of TGF β-1 activity by CITAs: reversal of TGF β-1 inhibition of DNA synthesis in MV-1-Lu cells; type: cell-based; details: for DNA synthesis restored, relative to the level seen with TGF β-1: MV-1-Lu cells exposed to 5 nM TGF β-1, all concentrations of CITAs; for reversal of the inhibition of DNA synthesis caused by TGF β-1 / 3H-Thymidine Incorporation 10^3 d.p.m. ± S.D.: MV-1-Lu cells; for reversal of the inhibition of DNA synthesis caused by TGF β-1: TGF β-1 5 nM and 10 nM; for 3H-Thymidine Incorporation 10^3 d.p.m. ± S.D.: 24 h; for (+/−) % change over control when CITA is present: vs control (no additions)
From the text: as §1, §2

[3] = CITA 1 nM alone, no TGF β-1, MV-1-Lu cells
[4] = CITA 10 nM alone, no TGF β-1, MV-1-Lu cells
[5] = CITA 100 nM alone, no TGF β-1, MV-1-Lu cells
[6] = TGF β-1 5 nM + CITA 1 nM, relative to TGF β-1 5 nM alone
[7] = TGF β-1 5 nM + CITA 10 nM, relative to TGF β-1 5 nM alone
[8] = TGF β-1 5 nM + CITA 100 nM, relative to TGF β-1 5 nM alone
[9] = TGF β-1 10 nM + CITA 1 nM, relative to TGF β-1 10 nM alone
[10] = TGF β-1 10 nM + CITA 10 nM, relative to TGF β-1 10 nM alone
[11] = TGF β-1 10 nM + CITA 100 nM, relative to TGF β-1 10 nM alone

Substance | 3H-Thymidine Incorporation 10^3 d.p.m. ± S.D. [1, 3] | (+/−) % change over control when CITA is present ([1]; CITA 1 nM alone, no TGF β-1) | 3H-Thymidine Incorporation 10^3 d.p.m. ± S.D. [1, 4] | (+/−) % change over control when CITA is present ([1]; CITA 10 nM alone, no TGF β-1) | 3H-Thymidine Incorporation 10^3 d.p.m. ± S.D. [1, 5] | (+/−) % change over control when CITA is present ([1]; CITA 100 nM alone, no TGF β-1) | decrease of DNA synthesis against the control [1] | DNA synthesis restored, relative to the level seen with TGF β-1 [2] | reversal of the inhibition of DNA synthesis caused by TGF β-1 [2] | % Increase over TGF β-1. TGF β-1 + CITA/TGF β-1 × 100 [2, 6] | 3H-Thymidine Incorporation 10^3 d.p.m. ± S.D. ([2]; TGF β-1 5 nM + CITA 1 nM) | (+/−) % change over control when CITA is present ([2]; TGF β-1 5 nM + CITA 1 nM) | % Increase over TGF β-1. TGF β-1 + CITA/TGF β-1 × 100 [2, 7] | 3H-Thymidine Incorporation 10^3 d.p.m. ± S.D. ([2]; TGF β-1 5 nM + CITA 10 nM) | (+/−) % change over control when CITA is present ([2]; TGF β-1 5 nM + CITA 10 nM) | % Increase over TGF β-1. TGF β-1 + CITA/TGF β-1 × 100 [2, 8] | 3H-Thymidine Incorporation 10^3 d.p.m. ± S.D. ([2]; TGF β-1 5 nM + CITA 100 nM) | (+/−) % change over control when CITA is present ([2]; TGF β-1 5 nM + CITA 100 nM) | % Increase over TGF β-1. TGF β-1 + CITA/TGF β-1 × 100 [2, 9] | 3H-Thymidine Incorporation 10^3 d.p.m. ± S.D. ([2]; TGF β-1 10 nM + CITA 1 nM) | other results
Leu-Ile-Ala-Pro-D-Glu-Ala (LIAP[dE]A) [CITA-I] | 46.46 ± 2.48 10^3 d.p.m. | −19% | 44.93 ± 3.34 10^3 d.p.m. | −21% | 45.10 ± 1.27 10^3 d.p.m. | −22% | approximately 20% | 2 × | markedly reversed the inhibition of DNA synthesis | 250% | 41.05 ± 2.04 10^3 d.p.m. | −29% | 194% | 31.88 ± 2.32 10^3 d.p.m. | −45% | 181% | 29.70 ± 2.79 10^3 d.p.m. | −49% | 1113% | 21.26 ± 1.30 10^3 d.p.m. | (+/−) % change over control when CITA is present ([2]; TGF β-1 10 nM + CITA 1 nM): −63%; % Increase over TGF β-1. TGF β-1 + CITA/TGF β-1 × 100 [2, 10]: 1373%; 3H-Thymidine Incorporation 10^3 d.p.m. ± S.D. ([2]; TGF β-1 10 nM + CITA 10 nM): 26.23 ± 2.73 10^3 d.p.m.; (+/−) % change over control when CITA is present ([2]; TGF β-1 10 nM + CITA 10 nM): −55%; % Increase over TGF β-1. TGF β-1 + CITA/TGF β-1 × 100 [2, 11]: 906%; 3H-Thymidine Incorporation 10^3 d.p.m. ± S.D. ([2]; TGF β-1 10 nM + CITA 100 nM): 17.30 ± 2.19 10^3 d.p.m.; (+/−) % change over control when CITA is present ([2]; TGF β-1 10 nM + CITA 100 nM): −70%; increase in DNA synthesis in the inhibited cells ([2]; cells severely inhibited by 10 nM TGF β-1, all concentrations of CITA-I): over 10 fold
Leu-Phe-Ala-Pro-D-Glu-Ala (LFAP[dE]A) [CITA-III] | 44.67 ± 2.26 10^3 d.p.m. | −23% | 47.19 ± 3.00 10^3 d.p.m. | −18% | 44.36 ± 1.76 10^3 d.p.m. | −23% | approximately 20% | 2 × | markedly reversed the inhibition of DNA synthesis | 207% | 34.00 ± 0.86 10^3 d.p.m. | −41% | 207% | 34.03 ± 1.11 10^3 d.p.m. | −41% | 184% | 30.23 ± 1.69 10^3 d.p.m. | −48% | 1275% | 24.36 ± 1.14 10^3 d.p.m. | (+/−) % change over control when CITA is present ([2]; TGF β-1 10 nM + CITA 1 nM): −58%; % Increase over TGF β-1. TGF β-1 + CITA/TGF β-1 × 100 [2, 10]: 997%; 3H-Thymidine Incorporation 10^3 d.p.m. ± S.D. ([2]; TGF β-1 10 nM + CITA 10 nM): 19.04 ± 1.47 10^3 d.p.m.; (+/−) % change over control when CITA is present ([2]; TGF β-1 10 nM + CITA 10 nM): −67%; % Increase over TGF β-1. TGF β-1 + CITA/TGF β-1 × 100 [2, 11]: 907%; 3H-Thymidine Incorporation 10^3 d.p.m. ± S.D. ([2]; TGF β-1 10 nM + CITA 100 nM): 17.32 ± 0.27 10^3 d.p.m.; (+/−) % change over control when CITA is present ([2]; TGF β-1 10 nM + CITA 100 nM): −70%
Phe-Ile-Ala-Pro-D-Glu-Ala (FIAP[dE]A) [CITA-II] | 45.10 ± 1.27 10^3 d.p.m. | −22% | 42.03 ± 1.11 10^3 d.p.m. | −27% | 43.08 ± 1.23 10^3 d.p.m. | −25% | approximately 20% | 2 × | markedly reversed the inhibition of DNA synthesis | 184% | 31.04 ± 1.07 10^3 d.p.m. | −29% | 169% | 27.75 ± 1.50 10^3 d.p.m. | −45% | 207% | 34.00 ± 0.86 10^3 d.p.m. | −49% | 970% | 18.51 ± 1.23 10^3 d.p.m. | (+/−) % change over control when CITA is present ([2]; TGF β-1 10 nM + CITA 1 nM): −63%; % Increase over TGF β-1. TGF β-1 + CITA/TGF β-1 × 100 [2, 10]: 1084%; 3H-Thymidine Incorporation 10^3 d.p.m. ± S.D. ([2]; TGF β-1 10 nM + CITA 10 nM): 20.70 ± 2.63 10^3 d.p.m.; (+/−) % change over control when CITA is present ([2]; TGF β-1 10 nM + CITA 10 nM): −55%; % Increase over TGF β-1. TGF β-1 + CITA/TGF β-1 × 100 [2, 11]: 981%; 3H-Thymidine Incorporation 10^3 d.p.m. ± S.D. ([2]; TGF β-1 10 nM + CITA 100 nM): 18.73 ± 1.67 10^3 d.p.m.; (+/−) % change over control when CITA is present ([2]; TGF β-1 10 nM + CITA 100 nM): −70%
TGF β-1: transforming growth factor β-1, growth factor protein used to inhibit DNA synthesis of MV-1-Lu cells | – | – | – | – | – | – | – | – | – | – | – | – | – | – | – | – | – | – | – | – | 3H-Thymidine Incorporation 10^3 d.p.m. ± S.D. ([1]; TGF β-1 5 nM alone, MV-1-Lu cells): 16.43 ± 2.95 10^3 d.p.m.; (+/−) % change over control with TGF β-1 ([1]; TGF β-1 5 nM alone): −72%; decrease of DNA synthesis ([1]; TGF β-1 5.0 nM, MV-1-Lu cells): approximately 70%; 3H-Thymidine Incorporation 10^3 d.p.m. ± S.D. ([1]; TGF β-1 10 nM alone, MV-1-Lu cells): 1.91 ± 0.08 10^3 d.p.m.; (+/−) % change over control with TGF β-1 ([1]; TGF β-1 10 nM alone): −97%; inhibition of DNA synthesis ([1]; TGF β-1 10 nM, MV-1-Lu cells): ~97%
